Reference: US20110173718A1, “HERBICIDE TOLERANT PLANTS” (SYNGENTA CROP PROTECTION, INC., priority 2008, published 2011)

What was measured:
weeds [1] = assay: Glasshouse weed control, HST inhibitors alone and with A22, pre-emergence; type: in vivo; details: 14 DAT
Method: (§1) In a further test, the results of which are depicted in tables 18 and 19, weed seeds are planted out in trays containing 50% peat/50% John Innes no. 3 soil and grown in the glass house at 24-27 C day; 18-21 C night and approximately a 15 h photoperiod. Humidity is ˜65% and light levels at bench level are up to 2 mmol/m^2. Again all spray chemicals are dissolved in 0.2% X77 surfactant and sprayed from a boom on a track sprayer moving at 2 mph with the nozzle set about 2 inches above the plant tops. The spray volume is […]. Sprays are carried out both pre-emergence and post-emergence over small plants at about 7-12 d post-emergence. Plants are assessed at 14 DAT with herbicidal damage scored on a scale from 0 to 100%. The HPPD inhibiting herbicide is compound A22 (4-hydroxy-3-[[2-(2-methoxyethoxy)methyl]-6-(trifluoromethyl)-3-pyridinylicarbonyl]-bicyclo[3.2.1]oct-3-en-2-one) which is sprayed at 2 g/ha both alone and in mixture with various HST herbicides. Results and spray rates are depicted in Tables 18 and 19. Again the Colby formula has been used to calculate synergy scores observed following treatment with the mixture based on the results obtained with the single components alone. Positive synergy is observed between the HPPD herbicide and a wide variety of HST inhibitor herbicides applied both pre and postemergence across a variety of weeds.

Arabidopsis HST = molecular target: T1, Arabidopsis HST (Arabidopsis thaliana, UniProt Q1ACB3); assay: HST total extraction (non TLC) assay, recombinant Arabidopsis HST from insect cells; type: biochemical
T1 construct: GST (factor Xa cleavage site) (N); made in house; host or cells: Sf9 insect cells (baculovirus, pAcG3X), membrane fraction
T1 sequence (Q1ACB3 70-386): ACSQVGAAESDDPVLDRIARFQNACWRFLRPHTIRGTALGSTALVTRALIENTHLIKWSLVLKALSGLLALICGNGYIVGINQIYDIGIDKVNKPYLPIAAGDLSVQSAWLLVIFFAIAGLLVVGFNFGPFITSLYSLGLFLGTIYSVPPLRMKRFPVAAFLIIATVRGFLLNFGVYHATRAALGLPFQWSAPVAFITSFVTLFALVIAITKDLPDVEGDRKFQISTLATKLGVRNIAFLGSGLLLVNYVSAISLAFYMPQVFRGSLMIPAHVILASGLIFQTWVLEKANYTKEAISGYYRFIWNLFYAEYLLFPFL

weeds [2] = assay: Glasshouse weed control, HST inhibitors alone and with A22, post-emergence; type: in vivo; details: 14 DAT, single replicate
Method: as §1

C#Cn1c(=O)c(-c2c(F)ccc(F)c2Cl)c(O)c2nccnc21 [Compound 2.18]
BRAPL Obs, % control score (weeds [1]; HST inhibitor rate 15.625 g/ha): 0%
BRAPL Obs, % control score (weeds [1]; HST inhibitor rate 62.5 g/ha): 10%
BRAPL Obs, % control score (weeds [1]; HST inhibitor rate 250 g/ha): 40%
DIGSA Obs, % control score (weeds [1]; HST inhibitor rate 15.625 g/ha): 0%
DIGSA Obs, % control score (weeds [1]; HST inhibitor rate 62.5 g/ha): 0%
DIGSA Obs, % control score (weeds [1]; HST inhibitor rate 250 g/ha): 0%
ECHCG Obs, % control score (weeds [1]; HST inhibitor rate 15.625 g/ha): 0%
ECHCG Obs, % control score (weeds [1]; HST inhibitor rate 62.5 g/ha): 20%
ECHCG Obs, % control score (weeds [1]; HST inhibitor rate 250 g/ha): 20%
PANMI Obs, % control score (weeds [1]; HST inhibitor rate 15.625 g/ha): 0%
PANMI Obs, % control score (weeds [1]; HST inhibitor rate 62.5 g/ha): 0%
PANMI Obs, % control score (weeds [1]; HST inhibitor rate 250 g/ha): 50%
SETFA Obs, % control score (weeds [1]; HST inhibitor rate 15.625 g/ha): 0%
SETFA Obs, % control score (weeds [1]; HST inhibitor rate 62.5 g/ha): 20%
SETFA Obs, % control score (weeds [1]; HST inhibitor rate 250 g/ha): 25%
SIDSP Obs, % control score (weeds [1]; HST inhibitor rate 15.625 g/ha): 0%
SIDSP Obs, % control score (weeds [1]; HST inhibitor rate 62.5 g/ha): 30%
SIDSP Obs, % control score (weeds [1]; HST inhibitor rate 250 g/ha): 30%
Estimated IC50 (ppm) (Arabidopsis HST): 6 ppm
% control score, Obs (weeds [2]; BRAPL, 15.625 g/ha alone): 5%
% control score, Obs (weeds [2]; BRAPL, 62.5 g/ha alone): 60%
% control score, Obs (weeds [2]; BRAPL, 250 g/ha alone): 80%
% control score, Obs (weeds [2]; DIGSA, 15.625 g/ha alone): 1%
% control score, Obs (weeds [2]; DIGSA, 62.5 g/ha alone): 30%
% control score, Obs (weeds [2]; DIGSA, 250 g/ha alone): 50%
% control score, Obs (weeds [2]; ECHCG, 15.625 g/ha alone): 2%
% control score, Obs (weeds [2]; ECHCG, 62.5 g/ha alone): 40%
% control score, Obs (weeds [2]; ECHCG, 250 g/ha alone): 70%
% control score, Obs (weeds [2]; PANMI, 15.625 g/ha alone): 10%
% control score, Obs (weeds [2]; PANMI, 62.5 g/ha alone): 65%
% control score, Obs (weeds [2]; PANMI, 250 g/ha alone): 70%
% control score, Obs (weeds [2]; SETFA, 15.625 g/ha alone): 10%
% control score, Obs (weeds [2]; SETFA, 62.5 g/ha alone): 60%
% control score, Obs (weeds [2]; SETFA, 250 g/ha alone): 85%
% control score, Obs (weeds [2]; SIDSP, 15.625 g/ha alone): 15%
% control score, Obs (weeds [2]; SIDSP, 62.5 g/ha alone): 60%
% control score, Obs (weeds [2]; SIDSP, 250 g/ha alone): 70%
